Results from patent US6524800B2, “Exploiting genomics in the search for new drugs” (Affymetrix, Inc., priority 1997, dated 2003).
Like-named read-outs stand apart in the source and are kept apart here.

What was measured:
[1] = system: human lung fibroblast cells; settings: cited from earlier work
Pho85p = molecular target: T1, Pho85p (Saccharomyces cerevisiae, UniProt P17157); assay: kinase assay in immunoprecipitates, Pho85p; type: biochemical, yeast; settings: for inhibition of Pho85p (in words): immunoprecipitates
T1 construct: made in house
T1 sequence (P17157 whole entry): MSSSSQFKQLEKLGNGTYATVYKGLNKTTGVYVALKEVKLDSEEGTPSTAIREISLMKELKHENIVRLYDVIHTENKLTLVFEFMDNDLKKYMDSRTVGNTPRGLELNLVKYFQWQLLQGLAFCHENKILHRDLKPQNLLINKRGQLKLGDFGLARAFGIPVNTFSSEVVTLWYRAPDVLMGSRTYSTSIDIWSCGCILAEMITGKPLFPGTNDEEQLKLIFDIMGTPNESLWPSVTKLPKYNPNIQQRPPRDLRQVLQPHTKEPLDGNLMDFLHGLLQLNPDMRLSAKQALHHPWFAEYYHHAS

cdc2-cyclin B = assay: purified kinase phosphorylation assay, cdc2-cyclin B; type: biochemical, Starfish
Text: (§1) To examine the effects of a range of diverse substituents on the purine ring, we synthesized combinatorial libraries in which the 2, 6, and 9 positions could be varied starting with a 2-flouro-6-chloropurine framework. (FIG. 1A) (2,3). Substitution chemistry was used to install amines at the 2 and 6 positions, and a Mitsunobu reaction (4,5) was used to alkylate the N9 position of the purine core. The subsitution chemistry allows introduction of primary and secondary amines bearing a wide range of functional groups, whereas the Mitsunobu reaction tolerates primary and secondary alcohols lacking additional acidic hydrogens. Newly appended groups can be modified combinatorially in subsequent steps with a variety of chemistries including acylation, reductive amination, and Suzuki coupling reactions (6), During library synthesis, one position is held invariant to allow attachment to the solid support. Libraries are synthesized in a spatially separated format with either a pin apparatus (7) or polystyrene resin and screened for kinase inhibitors with a 96-well, solution-phase phosphorylation assay.
9. Starfish is the major source for cdc2-cyclin B kinase.

yeast cells = assay: yeast arrest morphology and FACS; type: cell-based
Text: 16. The diminished growth inhibitory activity of compound 52Me is unlikely to result from poorer bioavailability because a similar N6 methylation is observed to increase the in vivo potency of a related series of purine-based inhibitors. The residual growth inhibitory activity of 52Me likely reflects activity against other cellular targets.

Kin28p = molecular target: T2, Kin28p (Saccharomyces cerevisiae, UniProt P06242); assay: kinase assay in immunoprecipitates, Kin28p; type: biochemical; settings: immunoprecipitated yeast kinase
T2 construct: made in house

[2] = system: mRNA levels of nearly all yeast genes; assay: transcript profiling with high-density oligonucleotide expression arrays; type: cell-based, S. cerevisiae; settings: for number of genes with greater than twofold change in transcript level: more than 6200 genes monitored; for YCRX13W SOL2 transcript INCREASE: FLA UNIQUE
Protocol: In addition to measuring the inhibitory effects of purine derivatives in kinase assays and assays of cell growth, their effects on the mRNA levels of nearly all yeast genes were determined with high-density oligonucleotide expression arrays (17, 18). These arrays (19, 20) make it possible to measure quantitatively and in parallel mRNA levels for a very large number of genes after any chemical, environmental, or genetic perturbation.
Yeast cultures were grown to late logarithmic phase (15), treated with 25 μM concentrations of the inhibitors for 2 hours, after which cellular polyadenylated mRNA was isolated and converted to biotin-labeled complementary RNA (cRNA) (17, 18). The labeled cRNA was then hybridized to a set of four arrays containing more than 260,000 25-nucleotide oligomers (20).
15. […] Three cultures [110 ml, in yeast extract, peptone, and dextrose (YPD)] were inoculated with single colonies of YRP1 (MAT, erg6::LEU2, pdr5::TRP1, snq2::HIS6) and grown at 30° C. with constant agitation in a water bath incubator. When the cell density reached an optical density (OD) of 0.9 (at a wavelength of 600 nm), 27.5 μl of a 100 mM dimethyl sulfoxide (DMSO) stock solution of 52 or flavopiridol or DMSO alone was added. After 2 hours the cells were harvested by centrifugation and flash frozen with liquid nitrogen. For the temperature-sensitive cdc28 mutants, three cultures (75 ml, YPD) of AFS 199 (cdc28-13), AA104 (cdc28-4), and their isogenic background strain AFS34 (MATa, ade2-1, his3-11, leu2-3, trp1-1, ura3) were grown from single colonies to an OD of 0.9 (600 nm) and harvested as described. Frozen cells were stored at […]

Cak1p = molecular target: T3, Cak1p (Saccharomyces cerevisiae, UniProt P43568); assay: kinase assay in immunoprecipitates, Cak1p; type: biochemical; settings: immunoprecipitated yeast kinase
T3 construct: made in house

Cdc28p = molecular target: T4, Cdc28p (Saccharomyces cerevisiae, UniProt P00546); assay: kinase assay in immunoprecipitates, Cdc28p; type: biochemical, yeast; settings: for inhibition of Cdc28p (in words): immunoprecipitates
T4 construct: made in house
T4 sequence (P00546 whole entry): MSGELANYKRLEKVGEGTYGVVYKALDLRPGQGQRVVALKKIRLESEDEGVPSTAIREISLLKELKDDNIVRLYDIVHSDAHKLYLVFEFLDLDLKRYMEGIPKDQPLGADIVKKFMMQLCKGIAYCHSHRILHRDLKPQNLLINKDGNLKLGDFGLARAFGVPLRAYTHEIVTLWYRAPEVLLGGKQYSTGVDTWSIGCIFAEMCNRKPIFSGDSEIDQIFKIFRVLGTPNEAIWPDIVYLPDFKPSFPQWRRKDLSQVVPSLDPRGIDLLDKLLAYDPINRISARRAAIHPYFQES

Srb10 = molecular target: T5, Srb10 (Saccharomyces cerevisiae, UniProt P39073); assay: kinase assay in immunoprecipitates, Srb10; type: biochemical; settings: immunoprecipitated yeast kinase
T5 construct: made in house

[3] = system: drug-sensitized yeast strain; assay: yeast growth inhibition; type: cell-based; settings: Saccharomyces cerevisiae; strain with drug-sensitizing deletions (erg6, pdr5, snq2)
[4] = system: four yeast CDKs (Cdc28p, Kin28p, Pho85p, and Srb10p) and the related kinase Cak1p; assay: yeast kinase panel in immunoprecipitates; type: biochemical
Protein kinase C [5] = molecular target: Protein kinase C (Homo sapiens, UniProt P24723); assay: purified kinase assay, Protein kinase C (Table 1 r21); type: biochemical; settings: Table 1 r21, isoform symbol not given
Protein kinase C (Homo sapiens, UniProt P24723), sequence (P24723 whole entry, canonical isoform): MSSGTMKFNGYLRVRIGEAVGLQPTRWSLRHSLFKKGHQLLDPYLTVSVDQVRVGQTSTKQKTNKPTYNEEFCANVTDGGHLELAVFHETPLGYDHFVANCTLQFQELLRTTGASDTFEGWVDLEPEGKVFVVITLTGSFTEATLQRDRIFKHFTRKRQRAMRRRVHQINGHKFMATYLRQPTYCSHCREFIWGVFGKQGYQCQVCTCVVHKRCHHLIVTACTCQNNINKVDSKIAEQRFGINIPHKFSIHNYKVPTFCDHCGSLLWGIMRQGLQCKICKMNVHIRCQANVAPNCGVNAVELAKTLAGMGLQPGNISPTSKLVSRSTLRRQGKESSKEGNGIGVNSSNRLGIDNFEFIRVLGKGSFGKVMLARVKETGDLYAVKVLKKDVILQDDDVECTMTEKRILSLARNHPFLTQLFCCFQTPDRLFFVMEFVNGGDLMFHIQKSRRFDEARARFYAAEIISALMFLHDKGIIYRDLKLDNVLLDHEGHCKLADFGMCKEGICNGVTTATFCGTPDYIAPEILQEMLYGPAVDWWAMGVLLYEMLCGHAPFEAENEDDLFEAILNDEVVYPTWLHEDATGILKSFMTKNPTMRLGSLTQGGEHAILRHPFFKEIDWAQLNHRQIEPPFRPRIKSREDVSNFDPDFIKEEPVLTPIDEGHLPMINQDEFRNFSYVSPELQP
Text: as §1

[6] = molecular target: Insulin-receptor tyrosine kinase (Homo sapiens, UniProt P06213); assay: purified kinase assay, Insulin-receptor tyrosine kinase; type: biochemical
Insulin-receptor tyrosine kinase, sequence (P06213 28-1382): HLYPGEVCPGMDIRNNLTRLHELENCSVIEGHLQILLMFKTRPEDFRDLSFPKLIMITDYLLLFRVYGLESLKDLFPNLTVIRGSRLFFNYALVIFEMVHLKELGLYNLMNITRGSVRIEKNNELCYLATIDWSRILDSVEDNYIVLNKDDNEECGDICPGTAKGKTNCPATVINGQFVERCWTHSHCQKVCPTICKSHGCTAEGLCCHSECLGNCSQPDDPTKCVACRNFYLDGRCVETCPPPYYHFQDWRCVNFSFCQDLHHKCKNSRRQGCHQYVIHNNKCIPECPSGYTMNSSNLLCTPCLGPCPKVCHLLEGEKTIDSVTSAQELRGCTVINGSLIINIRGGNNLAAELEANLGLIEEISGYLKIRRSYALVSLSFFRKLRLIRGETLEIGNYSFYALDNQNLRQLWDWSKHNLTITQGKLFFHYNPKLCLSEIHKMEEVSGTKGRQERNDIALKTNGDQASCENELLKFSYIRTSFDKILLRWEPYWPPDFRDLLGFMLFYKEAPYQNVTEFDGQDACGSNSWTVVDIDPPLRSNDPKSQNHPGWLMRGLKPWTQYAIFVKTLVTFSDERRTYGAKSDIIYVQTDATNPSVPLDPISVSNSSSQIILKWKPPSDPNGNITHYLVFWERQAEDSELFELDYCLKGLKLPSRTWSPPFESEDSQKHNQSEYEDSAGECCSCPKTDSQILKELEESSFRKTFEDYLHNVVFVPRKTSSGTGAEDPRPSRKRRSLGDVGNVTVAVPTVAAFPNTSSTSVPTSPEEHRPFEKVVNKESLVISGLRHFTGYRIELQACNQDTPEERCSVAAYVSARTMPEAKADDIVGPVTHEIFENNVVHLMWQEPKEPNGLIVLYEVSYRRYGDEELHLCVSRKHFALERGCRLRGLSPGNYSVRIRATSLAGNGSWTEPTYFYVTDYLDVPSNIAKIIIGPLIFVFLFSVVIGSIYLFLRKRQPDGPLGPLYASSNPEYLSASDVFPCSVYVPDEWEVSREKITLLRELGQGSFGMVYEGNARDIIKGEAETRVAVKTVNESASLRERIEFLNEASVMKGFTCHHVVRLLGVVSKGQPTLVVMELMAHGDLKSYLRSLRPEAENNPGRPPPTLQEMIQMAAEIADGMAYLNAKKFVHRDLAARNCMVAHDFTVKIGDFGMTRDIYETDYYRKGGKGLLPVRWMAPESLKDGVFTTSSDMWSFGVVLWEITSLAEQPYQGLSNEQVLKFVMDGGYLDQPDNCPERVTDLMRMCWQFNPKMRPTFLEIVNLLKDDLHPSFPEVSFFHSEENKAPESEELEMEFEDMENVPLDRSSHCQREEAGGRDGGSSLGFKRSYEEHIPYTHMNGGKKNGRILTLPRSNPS
Text: as §1

Protein kinase C2 = Protein kinase C2 (Homo sapiens, UniProt P05771); assay: purified kinase assay, Protein kinase C2 (Table 1 r17); type: biochemical
Protein kinase C2, sequence (P05771 1-673 isoform P05771-2): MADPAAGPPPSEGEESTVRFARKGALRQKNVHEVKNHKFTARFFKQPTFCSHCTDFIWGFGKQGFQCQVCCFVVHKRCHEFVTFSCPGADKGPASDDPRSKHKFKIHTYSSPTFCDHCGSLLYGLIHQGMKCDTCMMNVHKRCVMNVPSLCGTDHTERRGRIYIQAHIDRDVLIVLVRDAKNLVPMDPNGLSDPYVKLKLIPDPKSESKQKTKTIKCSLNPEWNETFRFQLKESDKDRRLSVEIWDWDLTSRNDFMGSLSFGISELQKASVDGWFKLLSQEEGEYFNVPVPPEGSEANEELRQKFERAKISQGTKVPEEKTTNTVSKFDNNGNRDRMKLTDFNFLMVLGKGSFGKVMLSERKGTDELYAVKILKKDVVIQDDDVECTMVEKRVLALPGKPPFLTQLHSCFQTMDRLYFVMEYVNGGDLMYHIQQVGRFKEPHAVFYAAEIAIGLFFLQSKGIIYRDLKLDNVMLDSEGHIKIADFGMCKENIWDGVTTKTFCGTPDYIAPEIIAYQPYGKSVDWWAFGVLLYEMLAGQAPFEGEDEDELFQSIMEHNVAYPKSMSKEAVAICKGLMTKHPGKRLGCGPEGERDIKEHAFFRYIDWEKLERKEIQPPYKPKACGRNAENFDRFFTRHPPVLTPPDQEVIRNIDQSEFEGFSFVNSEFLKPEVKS
Text: as §1

[7] = molecular target: c-jun NH2-terminal kinase; assay: purified kinase assay, c-jun NH2-terminal kinase; type: biochemical, human
Text: as §1

Protein kinase C [8] = molecular target: Protein kinase C (Homo sapiens, UniProt Q05513); assay: purified kinase assay, Protein kinase C (Table 1 r22); type: biochemical; settings: Table 1 r22, isoform symbol not given
Protein kinase C (Homo sapiens, UniProt Q05513), sequence (Q05513 whole entry, canonical isoform): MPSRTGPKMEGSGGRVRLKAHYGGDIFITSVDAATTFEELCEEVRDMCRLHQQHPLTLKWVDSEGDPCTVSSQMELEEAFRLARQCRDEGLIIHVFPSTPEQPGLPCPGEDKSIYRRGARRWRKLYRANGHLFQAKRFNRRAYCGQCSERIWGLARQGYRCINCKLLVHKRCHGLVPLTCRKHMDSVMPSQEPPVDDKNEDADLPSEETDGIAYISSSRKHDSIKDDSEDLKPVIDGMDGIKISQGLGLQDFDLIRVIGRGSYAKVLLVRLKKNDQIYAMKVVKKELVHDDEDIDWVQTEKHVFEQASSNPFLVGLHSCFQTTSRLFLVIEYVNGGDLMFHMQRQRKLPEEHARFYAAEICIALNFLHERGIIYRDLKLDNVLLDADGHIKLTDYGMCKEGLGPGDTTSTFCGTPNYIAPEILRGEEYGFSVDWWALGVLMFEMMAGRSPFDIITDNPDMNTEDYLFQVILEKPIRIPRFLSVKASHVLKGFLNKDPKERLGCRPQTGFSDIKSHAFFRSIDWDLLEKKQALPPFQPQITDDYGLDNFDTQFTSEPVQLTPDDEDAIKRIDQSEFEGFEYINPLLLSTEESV
Text: as §1

[9] = molecular target: cAMP-dependent protein kinase (Homo sapiens, UniProt P17612); assay: purified kinase assay, cAMP-dependent protein kinase; type: biochemical
Text: as §1

cdk2-cyclin A = cdk2-cyclin A (Homo sapiens, UniProt P24941); assay: purified kinase assay, cdk2-cyclin A; type: biochemical
Text: as §1

erk1 = erk1 (Homo sapiens, UniProt P27361); assay: purified kinase assay, erk1; type: biochemical
Text: as §1

Protein kinase C [10] = molecular target: Protein kinase C (Homo sapiens, UniProt P17252); assay: purified kinase assay, Protein kinase C (Table 1 r15); type: biochemical; settings: Table 1 r15, isoform symbol not given
Text: as §1

[11] = system: NCI panel of 60 human tumor cell lines; assay: NCI panel growth inhibition; type: cell-based
Protein kinase C [12] = molecular target: Protein kinase C (Homo sapiens, UniProt Q05655); assay: purified kinase assay, Protein kinase C (Table 1 r19); type: biochemical; settings: Table 1 r19, isoform symbol not given
Text: as §1

Protein kinase C [13] = molecular target: Protein kinase C (Homo sapiens, UniProt Q02156); assay: purified kinase assay, Protein kinase C (Table 1 r20); type: biochemical; settings: Table 1 r20, isoform symbol not given
Text: as §1

GSK3- = GSK3- (Homo sapiens, UniProt P49841); assay: purified kinase assay, GSK3-; type: biochemical
GSK3-, sequence (P49841 whole entry): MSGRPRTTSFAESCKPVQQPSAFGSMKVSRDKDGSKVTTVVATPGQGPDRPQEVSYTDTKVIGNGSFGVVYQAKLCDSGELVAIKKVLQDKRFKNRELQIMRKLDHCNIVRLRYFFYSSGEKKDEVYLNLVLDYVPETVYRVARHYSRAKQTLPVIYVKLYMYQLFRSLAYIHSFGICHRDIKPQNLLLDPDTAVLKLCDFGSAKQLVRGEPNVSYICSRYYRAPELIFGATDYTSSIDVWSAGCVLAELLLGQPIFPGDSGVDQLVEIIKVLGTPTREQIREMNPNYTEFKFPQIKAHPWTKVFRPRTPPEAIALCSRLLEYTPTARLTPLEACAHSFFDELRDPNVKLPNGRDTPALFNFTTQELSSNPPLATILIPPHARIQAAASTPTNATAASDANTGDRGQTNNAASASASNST
Text: as §1

Casein kinase 1 = assay: purified kinase assay, Casein kinase 1; type: biochemical, human
Text: as §1

cdk4-cyclin D1 = cdk4-cyclin D1 (Homo sapiens, UniProt P11802); assay: purified kinase assay, cdk4-cyclin D1; type: biochemical
Text: as §1

cdk2-cyclin E = cdk2-cyclin E (Homo sapiens, UniProt P24941); assay: purified kinase assay, cdk2-cyclin E; type: biochemical
Text: as §1

Protein kinase C1 = Protein kinase C1 (Homo sapiens, UniProt P05771); assay: purified kinase assay, Protein kinase C1 (Table 1 r16); type: biochemical
Text: as §1

[14] = molecular target: cGMP-dependent protein kinase (Homo sapiens, UniProt Q13976); assay: purified kinase assay, cGMP-dependent protein kinase; type: biochemical
cGMP-dependent protein kinase, sequence (Q13976 whole entry): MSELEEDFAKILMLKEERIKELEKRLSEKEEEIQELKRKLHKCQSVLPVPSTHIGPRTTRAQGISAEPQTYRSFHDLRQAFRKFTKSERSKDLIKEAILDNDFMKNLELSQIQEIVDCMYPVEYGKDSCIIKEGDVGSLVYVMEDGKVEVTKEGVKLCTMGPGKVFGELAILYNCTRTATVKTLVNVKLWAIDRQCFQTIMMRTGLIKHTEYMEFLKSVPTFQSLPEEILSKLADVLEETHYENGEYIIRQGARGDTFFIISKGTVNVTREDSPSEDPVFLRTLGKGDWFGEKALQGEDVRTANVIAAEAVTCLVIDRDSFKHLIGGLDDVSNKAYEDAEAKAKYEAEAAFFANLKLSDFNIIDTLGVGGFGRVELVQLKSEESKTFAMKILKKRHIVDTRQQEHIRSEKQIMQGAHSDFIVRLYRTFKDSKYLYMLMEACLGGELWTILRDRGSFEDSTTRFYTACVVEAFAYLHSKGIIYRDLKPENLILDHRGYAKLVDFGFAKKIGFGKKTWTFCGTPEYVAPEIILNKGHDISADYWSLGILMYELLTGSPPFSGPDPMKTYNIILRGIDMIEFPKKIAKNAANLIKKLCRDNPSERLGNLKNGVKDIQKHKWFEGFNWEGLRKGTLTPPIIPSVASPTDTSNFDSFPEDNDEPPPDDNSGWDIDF
Text: as §1

[15] = system: NCI-H522 non-small cell lung cancer cell line; assay: NCI panel growth inhibition, NCI-H522; type: cell-based, human
cdk5-p35 = cdk5-p35 (Homo sapiens, UniProt Q00535); assay: purified kinase assay, cdk5-p35; type: biochemical
Text: as §1

[16] = system: KM12 colon cancer cell line; assay: NCI panel growth inhibition, KM12; type: cell-based, human
Protein kinase C [17] = molecular target: Protein kinase C (Homo sapiens, UniProt P05129); assay: purified kinase assay, Protein kinase C (Table 1 r18); type: biochemical; settings: Table 1 r18, isoform symbol not given
Text: as §1

[18] = immunoprecipitated yeast kinase
[19] = yeast, inhibitor versus untreated

Compound	inhibition of Pho85p (in words) (Pho85p)	arrest morphology in yeast (in words) (yeast cells)	synchronization of yeast cells by FACS (in words) (yeast cells)	% of transcripts with greater than twofold change ([2]; 25 μM, 2 hours)	ribosomal protein transcripts decreased at least threefold ([2]; 25 μM, 2 hours)	number of genes with greater than twofold change in transcript level ([2]; 25 μM, 2 hours)	YCRX13W SOL2 transcript INCREASE [2]	Y13R214W transcript INCREASES [2, 19]	YBL002W HTB2 transcript DECREASES [2, 19]	YBR296C transcript change (in words) [2, 19]	YGLI79 transcript change (in words) [2, 19]	YGR108W (CLB 1) transcript DECREASES [2, 19]	YKRO97W PCK1 transcript INCREASES [2, 19]	YLR178c (TFS1) transcript INCREASES [2, 19]	inhibition of Cdc28p (in words) (Cdc28p)	GI50 [3]	IC50 [6]	IC50 [7]	IC50 [9]	IC50 (Casein kinase 1)	other results
COc1ccc(CNc2nc(N(CCO)CCO)nc3c2ncn3C(C)C)cc1 [2-(bis-(hydroxylethyl)amino)-6-(4-methoxybenzylamino)-9-isopropylpurine]																					cell cycle inhibitory activity by FACS ([1]; high concentrations): both G1-S and G2-M inhibitory activity; cell cycle inhibitory activity by FACS ([1]; lower concentrations): predominant G1-S inhibition
CC(C)n1cnc2c(Nc3cccc(Cl)c3)nc(NCCO)nc21 [Compound 52, 2-(2-hydroxyethylamino)-6-(3-chloroanilino)-9-isopropylpurine]	inhibited	failed to cause a uniform arrest morphology	did not reveal synchronization	3%	14	194	C52 - much smaller inc. (NL. 8 x at most) ×	(4-4.5 × for C52	(˜4.5 × for C52	VERY LARGE INCREASE (15-	INCREASES C52 & FLA	(˜8 fold with C52	˜7-8 fold with C52	INCREASES ˜6x	inhibited	30 µM					IC50 (Pho85p; [18]): 2 µM; IC50 (cdc2-cyclin B): 0.34 µM; IC50 (Kin28p): > 500 µM; number of genes whose transcript levels were decreased at least threefold ([2]; 25 μM, 2 hours): ~50; YKLO71W transcript Increase ([2]; C52 UNIQUE): 7-12 × Increase (C52); YDR281 C transcript INCREASE [2, 19]: ˜4.5-5.5 × INCREASE; IC50 (Cak1p): > 500 µM; IC50 (Cdc28p; [18]): 7 µM; IC50 (Srb10): > 500 µM
CC(C)n1cnc2c(N(C)c3cccc(Cl)c3)nc(NCCO)nc21 [Compound 52Me]		failed to cause a uniform arrest morphology	did not reveal synchronization	0.03%		2										200 µM					inhibition of any of the CDKs tested (in words) [4]: did not inhibit
CN1CC[C@H](c2c(O)cc(O)c3c(=O)cc(-c4ccccc4Cl)oc23)[C@H](O)C1 [flavopiridol, reference compound]		failed to cause a uniform arrest morphology		2%	no ribosomal protein transcript levels decreased more than threefold	132	7.5-10 × INCREASE	7-8.5 × for FLA	˜2.7 × for FLA	VERY LARGE INCREASE (15-	INCREASES C52 & FLA	˜2.5-3 fold with FLA)	˜4 × with FLA fold	INCREASES ˜6x		7 µM					
CC(C)[C@H](CO)Nc1nc(Nc2cccc(Cl)c2)c2ncn(C(C)C)c2n1 [purvalanol A]	inhibited														inhibited		5 µM	> 1 µM	9 µM	> 3.33 µM	IC50 (Protein kinase C [5]): > 100 µM; IC50 (Protein kinase C2): > 10 µM; IC50 (Protein kinase C [8]): > 100 µM; IC50 (cdk2-cyclin A): 0.07 µM; IC50 (erk1): 9 µM; IC50 (Protein kinase C [10]): > 10 µM; increase in sensitivity of two cell lines out of the 60 ([11]; KM12 and NCI-H522 versus average GI50): ~20 fold; GI50 ([11]; read-out: average GI50 (50% growth inhibition), average over 60 cell lines): 2 µM; IC50 (Protein kinase C [12]): > 100 µM; IC50 (Protein kinase C [13]): > 100 µM; IC50 (GSK3-): > 10 µM; IC50 (cdk4-cyclin D1): 0.85 µM; IC50 (cdk2-cyclin E): 0.035 µM; IC50 (Protein kinase C1): > 10 µM; IC50 [14]: > 10 µM; GI50 [15]: 0.347 µM; IC50 (cdk5-p35): 0.075 µM; GI50 [16]: 0.076 µM; IC50 (Protein kinase C [17]): > 10 µM
CC(C)[C@H](CO)Nc1nc(Nc2ccc(C(=O)O)c(Cl)c2)c2ncn(C(C)C)c2n1 [purvalanol B, 2-(1R-isopropyl-2-hydroxyethylamino)-6-(3-chloro-4-carboxyanilino)-9-isopropylpurine]																	2.2 µM	> 10 µM	3.8 µM	> 3.33 µM	IC50 [14]: > 100 µM
